The numbers were not newly measured in US9662309B2, “Anti-demodicosis agent” (BAYER INTELLECTUAL PROPERTY GMBH, priority 2004, dated 2017), which cites them from elsewhere.

This data set concerns demodicosis. To be noted: spot-on treatment 3 times weekly.

As for 22,23-dihydroavermectin B1 [ivermectin], the effectiveness against demodicosis result is “insufficiently effective”.
